Experimental data taken from patent US20150105252A1, “SUBSTITUTED PYRAZOLES AS HERBICIDES” (E I DU PONT DE NEMOURS AND COMPANY, priority 2013, published 2015).

Tests used:
[1] = test system: windgrass; test: Test C postemergence; type: in vivo, Apera spica-venti; details: 250 g ai/ha, scale 0 to 100 (0 no effect, 100 complete control)
[2] = test system: sunflower; test: Test C preemergence; type: in vivo, Helianthus annuus; details: for Plant response rating (scale of 0 to 100), Sunflower: Preemergence, 250 g ai/ha; for Sunflower plant response rating / Plant response rating, Sunflower: preemergence; for Plant response rating, Sunflower: 62 g ai/ha, scale 0 to 100, 0 = no effect, 100 = complete control
Description: Seeds of plant species selected from blackgrass (Alopecurus myosuroides), ryegrass, Italian (Italian ryegrass, Lolium multiflorum), wheat (winter wheat, Triticum aestivum), galium (catchweed bedstraw, Galium aparine), corn (Zea mays), crabgrass, large (large crabgrass, Digitaria sanguinalis), foxtail, giant (giant foxtail, Setaria faberii), johnsongrass (Sorghum halepense), lambsquarters (Chenopodium album), morningglory (Ipomoea coccinea), nutsedge, yellow (yellow nutsedge, Cyperus esculentus), pigweed (redroot pigweed, Amaranthus retroflexus), ragweed (common ragweed, Ambrosia elation), soybean (Glycine max), barnyardgrass (Echinochloa crus-galli), oilseed rape (Brassica napus), waterhemp (common waterhemp, Amaranthus rudis), oat, wild (wild oat, Avena fatua), kochia (Kochia scoparia), Surinam grass (Brachiaria decumbens), foxtail, green (green foxtail, Setaria viridis), goosegrass (Eleusine indica), bromegrass, downy (downy bromegrass, Bromus tectorum), nightshade (eastern black nightshade, Solanum ptycanthum), cocklebur (common cocklebur, Xanthium strumarium), cupgrass, woolly (woolly cupgrass, Eriochloa villosa), bermudagrass (Cynodon dactylon), sunflower, (common oilseed sunflower, Helianthus annuus), Russian thistle (Salsola kali), and velvetleaf (Abutilon theophrasti) were planted into a blend of loam soil and sand and treated preemergence with test chemicals formulated in a non-phytotoxic solvent mixture which included a surfactant.
At the same time, plants selected from these crop and weed species and also chickweed (common chickweed, Stellaria media), canarygrass (littleseed canarygrass, Phalaris minor), and deadnettle (henbit deadnettle, Lamium amplexicaule), were planted in pots containing Redi-Earth® planting medium (Scotts Company, 14111 Scottslawn Road, Marysville, Ohio 43041) comprising spaghnum peat moss, vermiculite, wetting agent and starter nutrients and treated with postemergence applications of test chemicals formulated in the same manner. Plants ranged in height from 2 to 18 cm (1- to 4-leaf stage) for postemergence treatments. Treated plants and controls were maintained in a greenhouse for 13 to 15 days, after which time all species were compared to controls and visually evaluated. Plant response ratings, summarized in Table C, are based on a scale of 0 to 100 where 0 is no effect and 100 is complete control. A dash (-) response means no test result.

[3] = test system: lambsquarters; test: Test F preemergence; type: in vivo, Chenopodium album
Description: (§1) Seeds of plant species selected from corn (Zea mays), soybean (Glycine max), velvetleaf (Abutilon theophrasti), lambsquarters (Chenopodium album), wild poinsettia (Euphorbia heterophylla), pigweed, palmer (palmer pigweed, Amaranthus palmeri), common waterhemp (Amaranthus rudis), surinam grass (Brachiaria decumbens), large crabgrass (Digitaria sanguinalis), crabgrass, Brazil (Brazilian crabgrass, Digitaria horizontalis), fall panicum (Panicum dichotomiflorum), giant foxtail (Setaria faberii), green foxtail (Setaria viridis), goosegrass (Eleusine indica), johnsongrass (Sorghum halepense), common ragweed (Ambrosia elation), barnyardgrass (Echinochloa crus-galli), southern sandbur (Cenchrus echinatus), arrowleaf sida (Sida rhombifolia), Italian ryegrass (Lolium multiflorum), dayflower, VA (Virginia (VA) dayflower, Commelina virginica), field bindweed (Convolvulus arvensis), cocklebur (common cocklebur, Xanthium strumarium), morningglory (Ipomoea coccinea), nightshade (eastern black nightshade, Solanum ptycanthum), kochia (Kochia scoparia), yellow nutsedge (Cyperus esculentus), and hairy beggarticks (Bidens pilosa), were planted into a silt loam soil and treated preemergence with test chemicals formulated in a non-phytotoxic solvent mixture which included a surfactant.
(§2) At the same time, plants from these crop and weed species and also horseweed (Canada horseweed, Conyza canadensis), smartweed (ladysthumb smartweed, Polygonum persicaria), waterhemp_RES1, (ALS & Triazine resistant common waterhemp, Amaranthus rudis), and waterhemp_RES2, (ALS & HPPD resistant common waterhemp, Amaranthus rudis) were treated with postemergence applications of test chemicals formulated in the same manner. Plants ranged in height from 2 to 18 cm for postemergence treatments (1- to 4-leaf stage). Treated plants and controls were maintained in a greenhouse for 14 to 21 days, after which time all species were compared to controls and visually evaluated. Plant response ratings, summarized in Table F, are based on a scale of 0 to 100 where 0 is no effect and 100 is complete control. A dash (-) response means no test result.

[4] = test system: Surinam grass; test: Test F preemergence; type: in vivo, Brachiaria decumbens
Description: as §1, §2

[5] = test system: crabgrass, Brazil; test: Test F preemergence; type: in vivo, Digitaria horizontalis
Description: as §1, §2

[6] = test system: field bindweed; test: Test F preemergence; type: in vivo, Convolvulus arvensis
Description: as §1, §2

[7] = test system: hairy beggarticks; test: Test F preemergence; type: in vivo, Bidens pilosa
Description: as §1, §2

[8] = test system: kochia; test: Test A preemergence; type: in vivo, Kochia scoparia
How it was run: (§3)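 Visual injury ratings, 0 = no effect to 100 = complete control, taken about 10 days after treatment against untreated controls. Test chemicals, in a non-phytotoxic surfactant-containing solvent, were sprayed onto soil preemergence or onto one- to two-leaf plants (2–10 cm) postemergence, in loam–sand soil under greenhouse conditions.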

[9] = test system: galium; test: Test A postemergence; type: in vivo, Galium aparine
How it was run: as §3

[10] = 31 g ai/ha, scale 0 to 100 (0 no effect, 100 complete control), 13 to 15 days
[11] = 125 g ai/ha, scale 0 to 100, 0 is no effect, 100 is complete control
[12] = Preemergence, 31 g ai/ha, scale 0 to 100
[13] = Preemergence, 62 g ai/ha, scale 0 to 100
[14] = Preemergence, 125 g ai/ha, scale 0 to 100
[15] = preemergence, 8 g ai/ha, scale 0 to 100, 100 is complete control
[16] = preemergence, 16 g ai/ha, scale 0 to 100, 100 is complete control
[17] = 125 g ai/ha, visual injury, 0 to 100 scale, approx. 10 days
[18] = 500 g ai/ha, visual injury after approx. 10 days, 0 to 100 scale (0 no effect, 100 complete control)
[19] = Postemergence, 500 g ai/ha, 0 to 100 scale (0 no effect, 100 complete control)
[20] = postemergence, 125 g ai/ha, about 10 days, visual rating on 0 to 100 scale (0 no effect, 100 complete control)
[21] = Preemergence, 250 g ai/ha, scale 0 to 100
[22] = Preemergence, 16 g ai/ha, scale 0 to 100

SMILES: CCc1cc(C(=O)NCC(F)(F)F)nn1Cc1cccc(OC(F)(F)F)c1 [Compound 20]
- Plant response rating, Windgrass [1]: 45

SMILES: CCCNC(=O)c1cc(CC)n(Cc2cccc(OC(F)(F)F)c2)n1 [Compound 27]
- Plant response rating, Windgrass [1]: 45

SMILES: CCc1cc(C(=O)NOC(C)C)nn1Cc1cccc(OC(F)(F)F)c1 [Compound 70]
- Plant response rating (scale of 0 to 100), Sunflower [2]: 5
- Sunflower plant response rating [2, 10]: 0
- Plant response rating, Sunflower ([2]; 13 to 15 days): 0
- Sunflower plant response rating [2, 11]: 5
- Plant response rating, Windgrass [1]: 50

SMILES: CCONC(=O)c1cc(CC)n(Cc2cccc(OC(F)(F)F)c2)n1 [Compound 72]
- Plant response rating (scale of 0 to 100), Sunflower [2]: 20
- Sunflower plant response rating [2, 10]: 0
- Plant response rating, Sunflower ([2]; 13 to 15 days): 0
- Sunflower plant response rating [2, 11]: 5
- Plant response rating, Windgrass [1]: 30

SMILES: Cc1cc(C(=O)NCC(F)(F)F)nn1Cc1ccnc(C(F)(F)F)c1 [Compound 74]
- Plant response rating (scale of 0 to 100), Sunflower [2]: 95
- Sunflower plant response rating [2, 10]: 10
- Plant response rating, Sunflower ([2]; 13 to 15 days): 40
- Sunflower plant response rating [2, 11]: 75
- Plant response rating, Windgrass [1]: 5

SMILES: CCc1cc(-c2ccc(C(F)(F)F)cc2)nn1Cc1ccnc(C(F)(F)F)c1 [Compound 110]
- Plant response rating, Lambsquarters [3, 12]: 65
- Plant response rating, Lambsquarters [3, 13]: 50
- Plant response rating, Lambsquarters [3, 14]: 100
- Plant response rating, Lambsquarters [3, 15]: 0
- Plant response rating, Lambsquarters [3, 16]: 0
- Plant response rating, Surinam Grass [4, 12]: 5
- Plant response rating, Surinam Grass [4, 13]: 5
- Plant response rating, Surinam Grass [4, 14]: 10
- Plant response rating, Surinam Grass [4, 15]: 0
- Plant response rating, Surinam Grass [4, 16]: 0
- Plant response rating, Crabgrass, Brazil [5, 12]: 100
- Plant response rating, Crabgrass, Brazil [5, 13]: 100
- Plant response rating, Crabgrass, Brazil [5, 14]: 100
- Plant response rating, Crabgrass, Brazil [5, 15]: 50
- Plant response rating, Crabgrass, Brazil [5, 16]: 70
- Plant response rating, Field Bindweed [6, 12]: 30
- Plant response rating, Field Bindweed [6, 13]: 50
- Plant response rating, Field Bindweed [6, 14]: 90
- Plant response rating, Field Bindweed [6, 15]: 0
- Plant response rating, Field Bindweed [6, 16]: 10
- Plant response rating, Hairy Beggarticks [7, 12]: 35
- Plant response rating, Hairy Beggarticks [7, 13]: 30
- Plant response rating, Hairy Beggarticks [7, 14]: 50
- Plant response rating, Hairy Beggarticks [7, 15]: 50
- Plant response rating, Hairy Beggarticks [7, 16]: 35

SMILES: CCc1cc(C(=O)NOC(C)C)nn1Cc1ccnc(OC(F)F)c1 [Compound 126]
- Kochia plant response rating [8, 17]: 100
- Kochia plant response rating [8, 18]: 100
- Galium plant response rating [9, 19]: 90
- Galium plant response rating [9, 20]: 90

SMILES: CCCc1cc(C(=O)NCC(F)(F)F)nn1Cc1ccnc(OC(F)F)c1 [Compound 127]
- Kochia plant response rating [8, 17]: 100
- Kochia plant response rating [8, 18]: 100
- Galium plant response rating [9, 19]: 90
- Galium plant response rating [9, 20]: 90

SMILES: CCOc1cc(C(=O)NCC(F)(F)F)nn1Cc1ccnc(OC(F)F)c1 [Compound 128]
- Kochia plant response rating [8, 17]: 100
- Kochia plant response rating [8, 18]: 100
- Galium plant response rating [9, 19]: 100
- Galium plant response rating [9, 20]: 90

SMILES: CCCNC(=O)c1cc(OCC)n(Cc2ccnc(OC(F)F)c2)n1 [Compound 136]
- Kochia plant response rating [8, 17]: 100
- Kochia plant response rating [8, 18]: 100
- Galium plant response rating [9, 19]: 100
- Galium plant response rating [9, 20]: 90

SMILES: CCCc1cc(C(=O)NC(C)C)nn1Cc1cc(C(F)(F)F)nn1C [Compound 201]
- Plant response rating, Lambsquarters [3, 13]: 70
- Plant response rating, Lambsquarters [3, 14]: 100
- Plant response rating, Lambsquarters [3, 21]: 100
- Plant response rating, Lambsquarters [3, 16]: 0
- Plant response rating, Surinam Grass [4, 13]: 0
- Plant response rating, Surinam Grass [4, 14]: 35
- Plant response rating, Surinam Grass [4, 21]: 65
- Plant response rating, Surinam Grass [4, 16]: 0
- Plant response rating, Crabgrass, Brazil [5, 22]: 75
- Plant response rating, Crabgrass, Brazil [5, 13]: 95
- Plant response rating, Crabgrass, Brazil [5, 14]: 100
- Plant response rating, Crabgrass, Brazil [5, 21]: 100
- Plant response rating, Crabgrass, Brazil [5, 16]: 0
- Plant response rating, Field Bindweed [6, 22]: 15
- Plant response rating, Field Bindweed [6, 13]: 20
- Plant response rating, Field Bindweed [6, 14]: 75
- Plant response rating, Field Bindweed [6, 21]: 100
- Plant response rating, Field Bindweed [6, 16]: 0
- Plant response rating, Hairy Beggarticks [7, 13]: 20
- Plant response rating, Hairy Beggarticks [7, 14]: 35
- Plant response rating, Hairy Beggarticks [7, 21]: 40
- Plant response rating, Hairy Beggarticks [7, 16]: 0

SMILES: CCCc1cc(C(=O)NC2CC2)nn1Cc1ccnc(OC(F)F)c1 [Compound 205]
- Kochia plant response rating (0 to 100 scale) ([8]; 125 g ai/ha, visual injury approx. 10 days after treatment): 100
- Galium plant response rating ([9]; Postemergence, 125 g ai/ha, 0 to 100 scale, 0 no effect, 100 complete control): 90
- Galium plant response rating [9, 19]: 90

SMILES: CCc1cc(C(=O)NCC(F)(F)F)nn1Cc1ccnc(Br)c1 [Compound 224]
- Plant response rating, Lambsquarters [3, 13]: 98
- Plant response rating, Lambsquarters [3, 14]: 98
- Plant response rating, Lambsquarters [3, 21]: 100
- Plant response rating, Surinam Grass [4, 13]: 70
- Plant response rating, Surinam Grass [4, 14]: 50
- Plant response rating, Surinam Grass [4, 21]: 65
- Plant response rating, Crabgrass, Brazil [5, 13]: 98
- Plant response rating, Crabgrass, Brazil [5, 14]: 100
- Plant response rating, Crabgrass, Brazil [5, 21]: 100
- Plant response rating, Field Bindweed [6, 13]: 65
- Plant response rating, Field Bindweed [6, 14]: 90
- Plant response rating, Field Bindweed [6, 21]: 90
- Plant response rating, Hairy Beggarticks [7, 13]: 0
- Plant response rating, Hairy Beggarticks [7, 14]: 0
- Plant response rating, Hairy Beggarticks [7, 21]: 10
